In brackets after ≈: the same amount, converted by molar mass.
Assays:
Pseudomonas aeruginosa = experiment: Antibacterial activity against Pseudomonas aeruginosa by dilution technique; format: functional
Acinetobacter baumannii = experiment: Antibacterial activity against Acinetobacter baumannii by dilution technique; format: functional
Escherichia coli = experiment: Antibacterial activity against Escherichia coli by dilution technique; format: functional
Staphylococcus aureus [1] = experiment: Antibacterial activity against Staphylococcus aureus RN4220 by dilution technique; format: functional
Bacillus subtilis [2] = experiment: Antibacterial activity against Bacillus subtilis 168 by dilution technique; format: functional; settings: subsp. subtilis str. 168
Staphylococcus aureus [3] = experiment: Antibacterial activity against community associated methicillin-resistant Staphylococcus aureus USA300 by dilution technique; format: functional
[4] = Selectivity index, ratio of IC50 for human HEK293 cells to MIC for community associated methicillin-resistant Staphylococcus aureus USA300; format: functional
[5] = Selectivity index, ratio of IC50 for human HEK293 cells to MIC for Staphylococcus aureus RN4220; format: functional
HeLa = experiment: Cytotoxicity against human HeLa cells after 72 hrs by MTT assay; format: cell-based
Bacillus subtilis [6] = experiment: Antibacterial activity against Bacillus subtilis 168 by dilution technique in presence of kanamycin; format: functional, subsp. subtilis str. 168
Staphylococcus aureus [7] = experiment: Antibacterial activity against community associated methicillin-resistant Staphylococcus aureus USA300 by dilution technique in presence of chloramphenicol; format: functional
Bacillus subtilis [8] = experiment: Antibacterial activity against Bacillus subtilis 168 by dilution technique in presence of chloramphenicol; format: functional, subsp. subtilis str. 168
Staphylococcus aureus [9] = experiment: Antibacterial activity against community associated methicillin-resistant Staphylococcus aureus USA300 by dilution technique in presence of kanamycin; format: functional
[10] = Selectivity index, ratio of IC50 for human HeLa cells to MIC for community associated methicillin-resistant Staphylococcus aureus USA300; format: functional
HEK293 = experiment: Cytotoxicity against human HEK293 cells after 72 hrs by MTT assay; format: cell-based; settings: HEK293, 72 h
[11] = Selectivity index, ratio of IC50 for human HeLa cells to MIC for Staphylococcus aureus RN4220; format: functional

Row | Structure (SMILES) | MIC (Pseudomonas aeruginosa) | MIC (Acinetobacter baumannii) | MIC (Escherichia coli) | MIC (Staphylococcus aureus [1]) | MIC (Bacillus subtilis [2]) | MIC (Staphylococcus aureus [3]) | Selectivity Index [4] | Selectivity Index [5] | MBC (Staphylococcus aureus [3]) | IC50 (HeLa) | fractional inhibitory concentration index (FICI) (Bacillus subtilis [6]) | fractional inhibitory concentration index (FICI) (Staphylococcus aureus [7]) | fractional inhibitory concentration index (FICI) (Bacillus subtilis [8]) | fractional inhibitory concentration index (FICI) (Staphylococcus aureus [9]) | Selectivity Index [10] | IC50 (HEK293) | Selectivity Index [11] | MBC (Staphylococcus aureus [1]) | MBC (Bacillus subtilis [2])
1 | CC(=O)O[C@@H]1C[C@@H]2[C@@]3(C)CC[C@H](O)C(C)(C)[C@@H]3CC[C@@]2(C)[C@]2(C)CC[C@H]([C@]3(C)CC[C@@H](C(C)(C)O)O3)[C@@H]12 | 64 µg/mL (≈ 123 µM) | 64 µg/mL (≈ 123 µM) | 64 µg/mL (≈ 123 µM) | > 128 µg/mL | > 128 µg/mL | – | – | – | – | – | – | – | – | – | – | – | – | – | –
2 | CC(C)(O)[C@H]1CC[C@@](C)([C@H]2CC[C@]3(C)[C@@H]2[C@H](O)C[C@@H]2[C@@]4(C)CCC(=O)C(C)(C)[C@@H]4CC[C@]23C)O1 | > 128 µg/mL | > 128 µg/mL | > 128 µg/mL | 128 µg/mL (≈ 270 µM) | 128 µg/mL (≈ 270 µM) | – | – | – | – | – | – | – | – | – | – | – | – | – | –
3 | O=C(N[C@H](CO)[C@H](O)c1ccc([N+](=O)[O-])cc1)C(Cl)Cl [CHLORAMPHENICOL] | – | – | – | – | 2 µg/mL (≈ 6.19 µM) | 4 µg/mL (≈ 12.4 µM) | – | – | – | – | – | – | – | – | – | – | – | – | –
4 | CC(C)(O)[C@H]1CC[C@@](C)([C@H]2CC[C@]3(C)[C@@H]2C(=O)C[C@@H]2[C@@]4(C)CCC(=O)C(C)(C)[C@@H]4CC[C@]23C)O1 | > 128 µg/mL | > 128 µg/mL | > 128 µg/mL | 128 µg/mL (≈ 271 µM) | 128 µg/mL (≈ 271 µM) | – | – | – | – | – | – | – | – | – | – | – | – | – | –
5 | C=C(C)[C@@H]1CC[C@]2(C(=O)O)CC[C@]3(C)[C@H](CC[C@@H]4[C@@]5(C)CC[C@H](O)[C@@](C)(CO)[C@@H]5CC[C@]43C)[C@@H]12 | > 128 µg/mL | > 128 µg/mL | > 128 µg/mL | 16 µg/mL (≈ 33.8 µM) | 8 µg/mL (≈ 16.9 µM) | 16 µg/mL (≈ 33.8 µM) | – | – | – | – | – | – | – | – | – | – | – | – | –
6 | CC(=O)O[C@@H]1C[C@@H]2[C@@]3(C)CC[C@H](O)C(C)(C)[C@@H]3CC[C@@]2(C)[C@]2(C)CC[C@H]([C@]3(C)CC[C@H](C(C)(C)O)O3)[C@@H]12 | 128 µg/mL (≈ 247 µM) | 128 µg/mL (≈ 247 µM) | 64 µg/mL (≈ 123 µM) | 64 µg/mL (≈ 123 µM) | > 128 µg/mL | – | – | – | – | – | – | – | – | – | – | – | – | – | –
7 | CC(C)(O)[C@@H]1CC[C@@](C)([C@H]2CC[C@]3(C)[C@@H]2[C@H](OC(=O)c2ccccc2C(=O)O)C[C@@H]2[C@@]4(C)CC[C@H](O)C(C)(C)[C@@H]4CC[C@]23C)O1 | 128 µg/mL (≈ 205 µM) | > 128 µg/mL | > 128 µg/mL | 4 µg/mL (≈ 6.4 µM) | 16 µg/mL (≈ 25.6 µM) | 32 µg/mL (≈ 51.2 µM) | 5.5 | 43.8 | 128 µg/mL (≈ 205 µM) | 54.4 µg/mL (≈ 87 µM) | <0.008 | 0.005 | <0.004 | 0.008 | 1.7 | 175 µg/mL (≈ 281 µM) | 13.6 | 64 µg/mL (≈ 102 µM) | 64 µg/mL (≈ 102 µM)
8 | CC(C)(O)[C@@H]1CC[C@@](C)([C@H]2CC[C@]3(C)[C@@H]2[C@H](O)C[C@@H]2[C@@]4(C)CC[C@H](O)C(C)(C)[C@@H]4CC[C@]23C)O1 | > 128 µg/mL | > 128 µg/mL | > 128 µg/mL | 8 µg/mL (≈ 16.8 µM) | 8 µg/mL (≈ 16.8 µM) | 8 µg/mL (≈ 16.8 µM) | 19.3 | 19.3 | – | 47.6 µg/mL (≈ 99.9 µM) | 1.03 | 1.5 | 1.25 | 0.14 | 6 | 154 µg/mL (≈ 324 µM) | 6 | – | –
9 | NC[C@H]1O[C@H](O[C@H]2[C@H](O)[C@@H](O[C@H]3O[C@H](CO)[C@@H](O)[C@H](N)[C@H]3O)[C@H](N)C[C@@H]2N)[C@H](O)[C@@H](O)[C@@H]1O [KANAMYCIN] | 8 µg/mL (≈ 16.5 µM) | 1 µg/mL (≈ 2.06 µM) | 1 µg/mL (≈ 2.06 µM) | 1 µg/mL (≈ 2.06 µM) | 0.25 µg/mL (≈ 0.516 µM) | 1 µg/mL (≈ 2.06 µM) | – | – | 4 µg/mL (≈ 8.26 µM) | – | – | – | – | – | – | – | – | – | 1 µg/mL (≈ 2.06 µM)
10 | CC(C)(O)[C@@H]1CC[C@@](C)([C@H]2CC[C@]3(C)[C@@H]2C(=O)C[C@@H]2[C@@]4(C)CC[C@H](O)C(C)(C)[C@@H]4CC[C@]23C)O1 | > 128 µg/mL | > 128 µg/mL | 64 µg/mL (≈ 135 µM) | 64 µg/mL (≈ 135 µM) | > 128 µg/mL | – | – | – | – | – | – | – | – | – | – | – | – | – | –
11 | CC(C)(O)[C@H]1CC[C@@](C)([C@H]2CC[C@]3(C)[C@@H]2C(=O)C[C@@H]2[C@@]4(C)CC[C@H](O)C(C)(C)[C@@H]4CC[C@]23C)O1 | > 128 µg/mL | > 128 µg/mL | > 128 µg/mL | > 128 µg/mL | 128 µg/mL (≈ 270 µM) | – | – | – | – | – | – | – | – | – | – | – | – | – | –
12 | CC(C)(O)[C@H]1CC[C@@](C)([C@H]2CC[C@]3(C)[C@@H]2[C@H](O)C[C@@H]2[C@@]4(C)CC[C@H](O)C(C)(C)[C@@H]4CC[C@]23C)O1 | > 128 µg/mL | 128 µg/mL (≈ 268 µM) | > 128 µg/mL | 64 µg/mL (≈ 134 µM) | 128 µg/mL (≈ 268 µM) | – | – | – | – | – | – | – | – | – | – | – | – | – | –
13 | CC(C)(O)[C@H]1CC[C@@](C)([C@H]2CC[C@]3(C)[C@@H]2[C@H](OC(=O)c2ccccc2C(=O)O)C[C@@H]2[C@@]4(C)CC[C@H](O)C(C)(C)[C@@H]4CC[C@]23C)O1 | > 128 µg/mL | > 128 µg/mL | > 128 µg/mL | 64 µg/mL (≈ 102 µM) | 16 µg/mL (≈ 25.6 µM) | 64 µg/mL (≈ 102 µM) | – | – | – | – | – | – | – | – | – | – | – | – | 128 µg/mL (≈ 205 µM)
14 | CC(C)(O)[C@@H]1CC[C@@](C)([C@H]2CC[C@]3(C)[C@@H]2[C@H](OC(=O)/C=C/c2ccccc2)C[C@@H]2[C@@]4(C)CC[C@H](O)C(C)(C)[C@@H]4CC[C@]23C)O1 | 128 µg/mL (≈ 211 µM) | 32 µg/mL (≈ 52.7 µM) | > 128 µg/mL | > 128 µg/mL | > 128 µg/mL | – | – | – | – | – | – | – | – | – | – | – | – | – | –
15 | CC(C)=CCC[C@](C)(O)[C@H]1CC[C@]2(C)[C@@H]1[C@H](O)C[C@@H]1[C@@]3(C)CC[C@H](O)C(C)(C)[C@@H]3CC[C@]12C | > 128 µg/mL | 64 µg/mL (≈ 139 µM) | 64 µg/mL (≈ 139 µM) | 16 µg/mL (≈ 34.7 µM) | 32 µg/mL (≈ 69.5 µM) | 32 µg/mL (≈ 69.5 µM) | – | – | – | – | 0.25 | 1.13 | 0.53 | 0.26 | – | – | – | – | –
16 | CC(C)(O)[C@@H]1CC[C@@](C)([C@H]2CC[C@]3(C)[C@@H]2C(=O)C[C@@H]2[C@@]4(C)CCC(=O)C(C)(C)[C@@H]4CC[C@]23C)O1 | > 128 µg/mL | > 128 µg/mL | > 128 µg/mL | 16 µg/mL (≈ 33.8 µM) | 64 µg/mL (≈ 135 µM) | 16 µg/mL (≈ 33.8 µM) | 10.6 | 10.6 | – | 47 µg/mL (≈ 99.4 µM) | – | – | – | – | 2.9 | 170 µg/mL (≈ 360 µM) | 2.9 | – | –
17 | O=c1[nH]cc(F)c(=O)[nH]1 [FLUOROURACIL] | – | – | – | – | – | – | – | – | – | 0.8 µg/mL (≈ 6.15 µM) | – | – | – | – | – | – | – | – | –
18 | CC(C)(O)[C@@H]1CC[C@@](C)([C@H]2CC[C@]3(C)[C@@H]2[C@H](O)C[C@@H]2[C@@]4(C)CCC(=O)C(C)(C)[C@@H]4CC[C@]23C)O1 | > 128 µg/mL | > 128 µg/mL | > 128 µg/mL | > 128 µg/mL | 32 µg/mL (≈ 67.4 µM) | – | – | – | – | – | – | – | – | – | – | – | – | – | –
